Where two headings read alike, the source gives them in different places.
Tests used:
[1] = tested on: P. aeruginosa biofilms; conditions: for Average CFU: 24 h treatment of 24 h old biofilm
Source text: (§1) The wild-type P. aeruginosa PAO1 used for the planktonic and biofilm experiments was obtained from the Pseudomonas Genetic Stock Center (www.pseudomonas.med.ecu.edu, strain PAO0001). The wild-type S. aureus 8325-4, used for planktonic and biofilm experiments was described by Novick, R. P. 1967. The following bacteria were obtained from the Department of Clinical Microbiology, Copenhagen University Hospital, Denmark: E. coli (wild type and clinical ESBL producing strains), S. aureus (wild type and clinical MRSA strains) and Klebsiella pneumoniae (clinical ESBL producing strain).
For plating, Luria broth (LB) medium mix with 2.0% agar was used. For all experiments including bacterial biofilms, AB minimal medium supplemented with glucose was used except if different is mentioned. AB minimal medium consists of: A standard buffer system consisting of (NH4)2SO4 (15.1 mM), Na2HPO4.2H2O (33.7 mM) and KH2PO4 (22.0 mM. NaCl (0.051 M), MgCl2 (1 mM), CaCl2 (0.1 mM), and trace metals (100 μl/liter). The trace metal solution contained CaSa4.2H2O (200 mg/liter), FeSO4.7H2O (200 mg/liter), MnSO4.H2O (20 mg/liter), CuSO4.5H2O (20 mg/liter), ZnSO4.7H2O (20 mg/liter), CoSO4.7H2O (10 mg/liter), NaMoO4.H2O, and H3BO3 (5 mg/liter).
(§2) Two types of biofilm setups were used, micropore filter assay and a microtitter plate assay: • The microtitter plate assay is based on biofilms growing in microtiter dishes with AB minimal medium containing 0.3 mM glucose as described by O′ toole et al (1999). • The Micro-pore assay is based on biofilms growing on a micropore filter on AB minimal agar plates. The micropore filters are placed on top of an AB minimal agar plate. Bacteria are propagated on the micro-pore filters as spots of 20 μl bacterial suspension and incubated at 37° C. For a biofilm to develop the filters were transferred to a fresh AB minimal agar plate once after 24 hours. The biofilm were mature and ready for use after 48 hours incubation in total, at 37° C. Planktonic cultures were grown in shake flasks at 37° C. The microtitter plate assay for biofilm tolerance to sodium diacetate was assessed by exchanging the AB minimal medium of 24 h old biofilms with AB minimal medium supplemented with different concentrations of sodium diacetate.
The antimicrobial effect was determined by plating the treated and non-treated biofilm. To ensure complete removal of all adhering bacteria the wells of the microtitter plate were washed mechanically.

[2] = tested on: bacterially infected chronic wounds; conditions: dressings with 0.2 mg/cm^2 or less on surface, with negative pressure wound therapy; initial results
Experimental: To elucidate the clinical potential of sodium diacetate in wound care human clinical trials are being performed in a hospital setting to test the efficacy of dressings incorporating sodium diacetate on bacterially infected chronic wounds.
Dressings are used employing 0.2 mg/cm^2 or less of sodium diacetate on the surface of the dressing material. Incorporating smaller amounts of sodium diacetate is tested incrementally. Initial trials are performed using negative pressure wound therapy in combination with dressings incorporating sodium diacetate as described herein. Trials are performed on test subjects having chronic wounds due to infection with for example P. aeruginosa and with reduced immune responses due to for example, drug abuse, diabetes, or obesity.

[3] = tested on: P. aeruginosa mature biofilm
Source text: as §1, §2
(§3) To elucidate the efficacy of dry sodium diacetate on microbial biofilms of P. aeruginosa. Bacteria were propagated on a micropore filter for biofilm formation. The Micro-pore filters were placed on top of an LB-agar plate. Bacteria were spread on the micro-pore filters as spots and incubated at 37° C. For a biofilm to develop the filters were transferred to a fresh LB-agar plate once after 24 hours. The biofilm were mature and ready for use after 48 hours incubation in total, at 37° C.
(§4) After 48 hours NaHAc2 was added on top of the biofilm spot, either directly or between two pieces of gauze. The control was plain gauze. All treatments were incubated for 24 hours. The effect was evaluated by replication of the micro pore filter after treatment. The endpoint was growth or no growth of bacteria after the treatment.

[4] = tested on: Klebsiella pneumoniae (clinical ESBL producing strain) biofilm; conditions: dry sodium diacetate, same method as example 3
Source text: as §1, §2, §3, §4

[5] = tested on: E. coli (wild type and clinical ESBL producing strains) biofilm
Source text: as §1, §2, §3, §4

[6] = tested on: S. aureus (wild type and clinical MRSA strains) biofilm; conditions: dry sodium diacetate, same method as example 3
Source text: as §1, §2, §3, §4

[7] = 24 hours old static biofilms in AB minimal medium

With `CC(=O)O.CC(=O)[O-].[Na+]` [sodium diacetate] the “Average CFU” value ([1]; 0.25% NaHAc2 (w/v)) was 1.15E+09 CFU, the “Average CFU” value ([1]; 0.50% NaHAc2 (w/v)) was 3.12E+08 CFU and the “Average CFU” value ([1]; 0.75% NaHAc2 (w/v)) was 9.63E+07 CFU. For the same molecule, the “Average CFU” value ([1]; 1.00% NaHAc2 (w/v)) was 8.05E+06 CFU, the “Average CFU” value ([1]; 1.25% NaHAc2 (w/v)) was 1.96E+05 CFU and the “Average CFU” value ([1]; 1.50% NaHAc2 (w/v)) was 1.98E+03 CFU. The “Average CFU” value ([1]; 1.75% NaHAc2 (w/v)) was 0 CFU, the “Average CFU” value ([1]; 2.00% NaHAc2 (w/v)) was 0 CFU and the “Average CFU” value ([1]; 2.25% NaHAc2 (w/v)) was 0 CFU. For the same molecule, the “Average CFU” value ([1]; 2.50% NaHAc2 (w/v)) was 0 CFU, the “Average CFU” value ([1]; 2.75% NaHAc2 (w/v)) was 0 CFU and the “Average CFU” value ([1]; 3% NaHAc2 (w/v)) was 0 CFU. For the same molecule, the “concentration at which an effect of the salt is already seen” value [1, 7] was 0.25 % (W/V), the “concentration giving complete killing of the biofilm bacteria” value [1, 7] was 1.75 % (W/V) and the “concentration giving complete killing of the biofilm bacteria” value ([1]; 24 hours old static biofilms in AB minimal medium, listed as NaHAc2) was ≥ 1.75 % (W/V). The killing of biofilm ([1]; even the lowest concentrations of NaHAc2) was “partial killing”, the “infections of chronic wounds” value [2] was “eradicated” and the wound healing [2] was “accelerated”. The “Media pH” value (0.50% NaHAc2 (w/v) in AB minimal media) was 5.78, the “Media pH” value (0.75% NaHAc2 (w/v) in AB minimal media) was 5.31 and the “Media pH” value (1.00% NaHAc2 (w/v) in AB minimal media) was 5.09. The “Media pH” value (1.25% NaHAc2 (w/v) in AB minimal media) was 4.99, the “Media pH” value (1.50% NaHAc2 (w/v) in AB minimal media) was 4.91 and the “Media pH” value (1.75% NaHAc2 (w/v) in AB minimal media) was 4.86. For the same molecule, the “Media pH” value (2.00% NaHAc2 (w/v) in AB minimal media) was 4.83, the “Media pH” value (2.25% NaHAc2 (w/v) in AB minimal media) was 4.80 and the “Media pH” value (2.50% NaHAc2 (w/v) in AB minimal media) was 4.78. The “Media pH” value (2.75% NaHAc2 (w/v) in AB minimal media) was 4.76, the “Media pH” value (3.00% NaHAc2 (w/v) in AB minimal media) was 4.74 and the “concentration at which the pH value levels out” value (AB minimal media (FIG. 1)) was “around 1.5 g/L”. For the same molecule, the “pH of aqueous AB minimal media” value (at 3 g/L of sodium diacetate (FIG. 1)) was about 4.75, the “growth or no growth of bacteria after treatment” value (from here on “growth or no growth of bacteria”) ([3]; NaHAc2 on top of 48 h biofilm spot, directly or between two pieces of gauze, 24 hours) was “completely eradicates” and the “growth or no growth of bacteria” value ([3]; treatment 1: dry between gauze) was “complete eradication”. The “growth or no growth of bacteria” value ([3]; treatment 2: between gauze soaked in wounds buffer) was “complete eradication”, the “growth or no growth of bacteria” value ([3]; treatment 3: foam soaked in wounds buffer) was “complete eradication” and the “growth or no growth of bacteria” value ([3]; treatment 4: dry) was “complete eradication”. For the same molecule, the “eradication of biofilm infection” value [4] was “completely eradicated”, the “growth or no growth of bacteria” value ([5]; between gauze soaked in wounds buffer (FIG. 4)) was “complete eradication” and the “growth or no growth of bacteria” value ([5]; dry between gauze (FIG. 4)) was “complete eradication”. The “eradication of biofilm infection” value ([5]; dry sodium diacetate, same method as example 3, wild type and clinical ESBL producing strains) was “completely eradicated”, the “growth or no growth of bacteria” value ([5]; foam soaked in wounds buffer (FIG. 4)) was “complete eradication” and the “eradication of biofilm infection” value [6] was “completely eradicated”.

— patent US11376230B2 (priority 2011, dated 2022)
